Data on one substance can be found in patent US20050232864A1, “Method for phenotyping using nmr spectroscopy” (priority 2002, published 2005).

The data set is described as follows: Pharmacokinetic parameters of CBZ in rabbit plasma by DNP-NMR compared with LC-MS (Example 3). The format is in vivo. The note with it: single oral dose 40 mg/kg CBZ. The protocol:
Samples were collected at 8 time points over a period of 24 hours, at the following times: 0 min., 15 min., 30 min., 1 hour, 2 hours, 4 hours, 8 hours and 24 hours. 2 ml blood was withdrawn from the marginal ear vein of the rabbit. Plasma was extracted from the blood and divided into two samples, one for LC-MS analysis and one for DNP and NMR analysis (˜0.5 ml for each).
Rabbit plasma (400 μl) in a 2 ml vial was treated with acetonitrile (750 μl) and sonicated with a sonication probe for 15 sec. Another portion of acetonitrile (750 μl) was added to the vial so as to rinse the probe, the vial was closed, agitated briefly on a whirly mixer and centrifuged at 14 000 rev/min for about 1 min. The supernatant was transferred into a fresh vial in portions and evaporated in a ThermoSavant SPD 111V speedvac. Towards the end of the evaporation, 20 μl of an aqueous stock solution of EDTA (1 μg/μl) was added and the mixture was evaporated to dryness. 50 μl of the stock solvent as described below was added to the solid residue, and the added weight was noted. The sample was sonicated for 15 min to dissolve the residue and centrifuged to force the whole sample to the bottom of the vial. The vial was weighed together with a pipette tip and the sample was collected into the pipette tip and dispensed drop wise into liquid nitrogen. The used vial and pipette tip was weighed again to assess the actual weight of the sample. The cooled sample pellets were placed in a sample cup and administered into a DNP-polariser.
The volume of the radical is not accounted for in the calculation.
The sample was dissolved in heated (60° C.) methanol-D4 containing 75 μg EDTA per 7.0 ml of methanol. The dissolved sample was collected in a 10 mm NMR-tube fitted with a NMR-spinner and kept in a portable magnetic field (12 mT). The sample was moved from the polariser into the NMR magnet as expediently as possible making sure that the tube is protected in the portable magnetic field during the transport.
A 1D ^13C NMR-spectrum was acquired with a 10 mm Varian direct detection probe at 100.393 MHz (400 MHz ^1H). […] The NMR acquisition parameters were a spectral width of 40 kHz (400 ppm), an acquisition time of 2.5 s, and a pulse angle of 90. […] The spectrum was acquired 5 s after dissolution was initiated.
First, the reference ^13C-NMR signal from HP001 was analysed by selecting one Lorentzian line shape model function to describe the signal. The algorithm calculates phase, amplitude, damping (or line width in frequency domain) and frequency. The first order phase was set fixed at zero. […] All phases of the peaks were zero with respect to the main phase and a Lorentzian line shape model function was assumed. […] The first order phase was fixed at zero, the zero order phase was determined by the algorithm.
0.11 μg, 0.33 μg, 0.5 μg, 1.0 μg, 1.5 μg, and 2.0 μg were spiked into […] rabbit plasma, incubated at 37° C. and prepared as described in the section on sample preparation.

[1] abbreviates: Table 2, footnote: E-CBZ levels calculated, DNP-NMR.
Where [2] appears, read: Table 2, footnote: E-CBZ levels calculated, LC-MS.

A word on the Cmax: it is the maximum level reached in the sampled fluid or tissue.

Regarding carbamazepine [CBZ], the AUC0.5-8h reads like this: (Table 1, CBZ levels, DNP-NMR) 52 µM·h; (Table 1, CBZ levels, LC-MS) 60 µM·h; under setting [1], 52 µM·h; under setting [2], 60 µM·h. In addition, the Cmax is 12 µM (Table 1, CBZ levels, DNP-NMR); 13.3 µM (Table 1, CBZ levels, LC-MS); 12 µM under setting [1]; 13.3 µM under setting [2].
